{
  "source": "patent US20050261246A1",
  "about": "“Methods for treating inflammatory and autoimmune diseases” (priority 2004, published 2005)",
  "key": {"[1]": {"assay": "Body weight and tolerability in arthritic and non-arthritic rats of the AA study", "type": "in vivo, rat", "text": "Adult male Lewis rats (200-250 g) were purchased from Charles River Laboratories, Raleigh, N.C. and housed two per cage. The animals were allowed to acclimate to the Sun Health Research Institute's vivarium for 7 days prior to the start of the experiment. The animals were maintained on a 12-h off/on light schedule. For AA rats rodent Diet (Purina Lab Diet 5001) was placed in the bottom of the cage and water was supplied using long-stemmed sipper tubes for easy access to food and water. […] Animals were weighed and observed daily to ensure adequate weight gain and good general health. Body weights and footpad measures were started 1 week prior to the first adjuvant injection to acclimate the animals to these mild stresses and obtain baseline data. Other than the development of arthritis, the good health of the animals was maintained throughout the course of the experiments. Protocols for the use and care of the animals in the study were approved prior to beginning the experiments by the Sun Health Research Institute Animal Use and Care Committee and complied with NIH guidelines for the humane use and care of research animals. Dorsoplantar footpad measurements were completed every other day. Prior to sacrifice the animals were given a 1.0 ml intraperitoneal (i.p.) injection of 8% chloral hydrate in sterile saline and radiographs were taken of their hind limbs to assess disease severity. The animals were then sacrificed using an overdose of chloral hydrate.\nLewis rats were randomly assigned into five experimental groups of four animals per group. The experimental groups were 1) saline/M. Butyricum suspended in saline (non-arthritic; control for drug and antigen challenge), 2) sodium narcistatin/M. Butyricum suspended in saline (non-arthritic; drug control for antigen challenge), 3) no treatment-CFA (arthritic; control for stress of injections), 4) saline-CFA (arthritic; control for drug treatment), and 5) sodium-narcistatin-CFA (arthritic) treatments. The experiment was completed with an N=4 then repeated with an additional N=4. […]"}, "[2]": {"test_system": "splenic myeloid cells (CD11b+), T and B cells", "assay": "Splenic cell populations in SNS-treated rats (immunostaining, flow cytometry)", "type": "in vivo, rat", "method": "B. Summary of myeloid cells (CD11b+ cells) present in various treatment groups. The statistical analysis was performed using t-test (*, N=4). SMB-saline, saline treated, non-arthritic, mycobacterium challenged; SMB-SNS, SNS treated, non-arthritic, mycobacterium challenged; CFA-saline, arthritic Saline treated; CFA-No-RX, arthritic no treatment (stress control); CFA-SNS, SNS treated arthritic. The experimental groups are the same as those in FIGS. 4-7.\nOne of characteristics of inflammatory response is an elevation of myeloid cells. […] The cells were stained with fluorescence-conjugated antibodies specific to CD3, CD45R, and CD11b, followed by analyses using flow cytometry to reveal T, B, and myeloid cells, respectively. Lymphoid and myeloid cells were distinguished based on their differing forward and side scatter patterns."}, "[3]": {"test_system": "TNFα and MCP-1 production", "assay": "In vivo air-pouch assay, LPS-stimulated cytokine production", "design": "species or system mouse", "settings": "SNS 5 mg/kg then LPS 1 μg/ml, vs LPS-stimulated controls", "method": "The reduction of TNF-alpha (P=0.04) and MCP-1 (P=0.03) in SNS-treated mice upon LPS stimulation. PBS_PBS: PBS followed by PBS; PBS_LPS: PBS followed by LPS (1 μg/ml); SNS_PBS: SNS followed by PBS; SNS_LPS: SNS (5 mg/kg) followed by LPS (1 μg/ml). Results are derived from three independent experiments. Statistical analysis was performed using one-way ANOVA.\nTo further test effects of SNS in whole animals, we established an air-pouch assay to evaluate the effect of the compound, SNS, on LPS-stimulated cytokine production, following a procedure described previously (9). (See FIG. 14) Mice were pre-treated with PBS or SNS then challenged with LPS. The pouch wash-out was then analyzed for cytokine production using BD™ CBA Mouse Inflammatory Kit (BD Biosciences)."}, "[4]": {"test_system": "NO production in LPS-stimulated RAW 264.7 cells", "assay": "NO production in LPS-stimulated RAW264.7 macrophage cell line (Griess reaction)", "type": "cell-based, mouse", "settings": "pre-treated with different concentrations, then 1 ng/ml LPS", "method": "Cells were pre-treated with different concentrations of SNS and then followed by stimulation with LPS. C is medium control. LPS, positive control without SNS treatment. The statistical analysis was performed using one-way ANOVA.\nIn further tests, we investigated the effect of SNS on the production of NO in a mouse macrophage cell line, RAW264.7. Cells were pre-treated with different concentrations of SNS and subsequently stimulated with 1 ng/ml of LPS. The level of NO production was measured by a spectrophotographic method using the Griess reaction. […] “C” is medium control, and “LPS” is positive control without SNS treatment. This analysis had been performed at least 3-5 times depending on the cell lines and drug used, with statistical analysis performed using one-way ANOVA."}, "[5]": {"test_system": "VEGF production in human cancer cell lines", "assay": "VEGF production in human cancer cell lines (ELISA)", "type": "cell-based", "method": "(A) Effect of SNS on VEGF production was analyzed in two cancer cell lines (both supernatants and cell lysates). (B) The supernatant from control and drug treated H460 cells was analyzed for the level of VEGF (pg/ml). C. […] Statistical analyses were performed using one-way ANOVA.\nAs discussed above, SNS and pancratastatin were originally synthesized as an anti-cancer agent. The inventors also examined the effect of SNS and pancratastatin on the production of VEGF in human cancer cell lines (FIG. 2). […] This analysis had been performed at least 3-5 times depending on the cell lines and drug used, with statistical analysis performed using one-way ANOVA."}},
  "data": [
    {"compound": "O=C1N[C@@H]2C(=C[C@H](O)[C@H]3OP(=O)(O)O[C@H]32)c2cc3c(c(O)c21)OCO3", "note": "[SNS, sodium narcistatin]", "values": [
      {"measurement": "tolerability / overt toxicity, arthritic rats", "setting": "[1]; body weights and gross evaluation of internal organs at end point", "value": "no general signs of overt toxicity were apparent"},
      {"measurement": "body weight, non-arthritic control rats", "setting": "[1]; day 28, chronic treatment, vs saline-treated non-arthritic controls, P<0.001", "value": "significantly decreased body weights"},
      {"measurement": "body weight, arthritic rats", "setting": "[1]; day 28, vs untreated or saline-treated arthritic rats", "value": "not significantly different"},
      {"measurement": "splenic myeloid population (CD11b+ cells)", "setting": "[2]; rats of the AA study, especially SNS/non-arthritic group", "value": "greatly reduced this myeloid population"},
      {"measurement": "numbers of splenic T and B lymphocytes", "setting": "[2]; various treatment groups", "value": "comparable numbers of T and B lymphocytes"},
      {"measurement": "MCP-1 in air-pouch wash-out", "setting": "[3]; P=0.03", "value": "significantly reduced"},
      {"measurement": "TNFα in air-pouch wash-out", "setting": "[3]; P=0.04", "value": "significantly reduced"},
      {"measurement": "NO production", "setting": "[4]", "value": "concentration-dependent inhibition of NO production"},
      {"measurement": "VEGF production, narcistatin compared with pancratistatin", "setting": "[5]", "value": "comparable inhibition on VEGF production"},
      {"measurement": "effect on VEGF production/secretion", "setting": "[5]; human cancer cell lines, ELISA", "value": "significantly suppresses the secretion of VEGF"}
    ]}
  ]
}
